Data taken from patent US8865698B2, “Method of treatment using substituted pyrazolo[1,5-a]pyrimidine compounds” (Array BioPharma Inc., priority 2008, dated 2014).
pIC50: −log10 of the molar value. Structures can show the parent of a compound that is named as a salt.

Biological target: histidine-tagged recombinant human TrkA, cytoplasmic domain (Homo sapiens (Human), UniProt P04629)
Assay: TrkA ELISA Assay
Assay type: biochemical
Settings: 2.5 nM TrkA, 500 μM ATP, 25 minutes; read-out: TrkA Elisa Enzyme IC50
Method: An enzyme-linked immunosorbant assay (ELISA) was used to assess TrkA kinase activity in the presence of inhibitors. Immulon 4HBX 384-well microtiter plates (Thermo part #8755) were coated with a 0.025 mg/mL solution of poly (Glu, Ala, Tyr; 6:3:1; Sigma P3899). Various concentrations of test compound, 2.5 nM TrkA (Invitrogen Corp., histidine-tagged recombinant human TrkA, cytoplasmic domain), and 500 μM ATP were incubated for 25 minutes at ambient temperature in the coated plates while shaking. The assay buffer consisted of 25 mM MOPS pH 7.5, 0.005% (v/v) Triton X-100 and 5 mM MgCl2. The reaction mixture was removed from the plate by washing with PBS containing 0.1% (v/v) Tween 20. The phosphorylated reaction product was detected using 0.2 μg/mL of a phosphotyrosine specific monoclonal antibody (clone PY20) conjugated to horseradish peroxidase in conjunction with the TMB Peroxidase Substrate System (KPL). After the addition of 1M phosphoric acid, the chromogenic substrate color intensity was quantitated via absorbance at 450 nm. IC50 values were calculated using either a 4 or 5-parameter logistic curve fit.

Chain of histidine-tagged recombinant human TrkA, cytoplasmic domain (P04629 440-796): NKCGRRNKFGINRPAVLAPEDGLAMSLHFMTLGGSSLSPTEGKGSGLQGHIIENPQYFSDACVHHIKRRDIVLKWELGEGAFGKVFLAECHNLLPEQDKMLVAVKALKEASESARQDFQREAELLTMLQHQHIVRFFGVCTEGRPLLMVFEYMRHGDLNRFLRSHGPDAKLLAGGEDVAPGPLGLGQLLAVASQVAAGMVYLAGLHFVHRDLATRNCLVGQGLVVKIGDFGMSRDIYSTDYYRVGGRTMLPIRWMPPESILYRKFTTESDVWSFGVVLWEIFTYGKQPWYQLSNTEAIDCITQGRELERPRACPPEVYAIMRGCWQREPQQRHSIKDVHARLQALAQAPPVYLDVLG

Row | Compound | pIC50
1 | COC(=O)C1(C(=O)Nc2cnn3ccc(N4CCC[C@@H]4c4cc(F)ccc4F)nc23)CC1 [Example 33, (R)-methyl 1-(5-(2-(2,5-difluorophenyl)pyrrolidin-1-yl)pyrazolo[1,5-a]pyrimidin-3-ylcarbamoyl)cyclopropanecarboxylate] | 8.33
2 | O=C(O)C1(C(=O)Nc2cnn3ccc(N4CCC[C@@H]4c4cc(F)ccc4F)nc23)CC1 [Example 34, (R)-1-(5-(2-(2,5-difluorophenyl)pyrrolidin-1-yl)pyrazolo[1,5-a]pyrimidin-3-ylcarbamoyl)cyclopropanecarboxylic acid] | 7.01
3 | O=C(Nc1cnn2ccc(N3CCC[C@@H]3c3cc(F)cc(Cl)c3)nc12)N1CC[C@H](O)C1 [Example 35, (S)—N-(5-((R)-2-(3-chloro-5-fluorophenyl)pyrrolidin-1-yl)pyrazolo[1,5-a]pyrimidin-3-yl)-3-hydroxypyrrolidine-1-carboxamide] | 7.69
4 | O=C(Nc1cnn2ccc(N3CCC[C@@H]3c3cc(F)ccc3C(F)F)nc12)N1CC[C@@H](O)C1 [Example 36, (R)—N-(5-((R)-2-(2-(difluoromethyl)-5-fluorophenyl)pyrrolidin-1-yl)pyrazolo[1,5-a]pyrimidin-3-yl)-3-hydroxypyrrolidine-1-carboxamide] | 7.74
5 | O=C(Nc1cnn2ccc(N3CCC[C@@H]3c3cc(F)ccc3C(F)F)nc12)N1CC[C@H](O)C1 [Example 37, (S)—N-(5-((R)-2-(2-(difluoromethyl)-5-fluorophenyl)pyrrolidin-1-yl)pyrazolo[1,5-a]pyrimidin-3-yl)-3-hydroxypyrrolidine-1-carboxamide] | 8.06
6 | O=C(Nc1cnn2ccc(N3CCC[C@@H]3c3cc(F)ccc3C(F)F)nc12)N1CCC(O)CC1 [Example 38, (R)—N-(5-(2-(2-(difluoromethyl)-5-fluorophenyl)pyrrolidin-1-yl)pyrazolo[1,5-a]pyrimidin-3-yl)-4-hydroxypiperidine-1-carboxamide] | 7.07
7 | O=C(Nc1cnn2ccc(N3CCC[C@@H]3c3cc(F)ccc3C(F)F)nc12)N1CCC[C@@H](O)C1 [Example 39, (R)—N-(5-((R)-2-(2-(difluoromethyl)-5-fluorophenyl)pyrrolidin-1-yl)pyrazolo[1,5-a]pyrimidin-3-yl)-3-hydroxypiperidine-1-carboxamide] | 7.59
8 | O=C(Nc1cnn2ccc(N3CCC[C@@H]3c3cc(F)ccc3C(F)F)nc12)N1CCC[C@H](O)C1 [Example 40, (S)—N-(5-((R)-2-(2-(difluoromethyl)-5-fluorophenyl)pyrrolidin-1-yl)pyrazolo[1,5-a]pyrimidin-3-yl)-3-hydroxypiperidine-1-carboxamide] | 7.51
9 | O=C(Nc1cnn2ccc(N3CCC[C@@H]3c3cc(F)ccc3Cl)nc12)N1CC[C@@H](O)C1 [Example 41, (R)—N-(5-((R)-2-(2-chloro-5-fluorophenyl)pyrrolidin-1-yl)pyrazolo[1,5-a]pyrimidin-3-yl)-3-hydroxypyrrolidine-1-carboxamide] | 8.39
10 | O=C(Nc1cnn2ccc(N3CCC[C@@H]3c3cc(F)ccc3Cl)nc12)N1CCC(O)CC1 [Example 42, (R)—N-(5-(2-(2-chloro-5-fluorophenyl)pyrrolidin-1-yl)pyrazolo[1,5-a]pyrimidin-3-yl)-4-hydroxypiperidine-1-carboxamide] | 7.55
11 | O=C(Nc1cnn2ccc(N3CCC[C@@H]3c3cc(F)ccc3Cl)nc12)N1CCC[C@@H](O)C1 [Example 43, (R)—N-(5-((R)-2-(2-chloro-5-fluorophenyl)pyrrolidin-1-yl)pyrazolo[1,5-a]pyrimidin-3-yl)-3-hydroxypiperidine-1-carboxamide] | 7.93
12 | O=C(Nc1cnn2ccc(N3CCC[C@@H]3c3cc(F)ccc3Cl)nc12)N1CCC[C@H](O)C1 [Example 44, (S)—N-(5-((R)-2-(2-chloro-5-fluorophenyl)pyrrolidin-1-yl)pyrazolo[1,5-a]pyrimidin-3-yl)-3-hydroxypiperidine-1-carboxamide] | 7.87
13 | CC(C)(C)C(=O)Nc1cnn2ccc(N3CCC[C@@H]3c3cc(F)ccc3F)nc12 [Example 45, (R)—N-(5-(2-(2,5-difluorophenyl)pyrrolidin-1-yl)pyrazolo[1,5-a]pyrimidin-3-yl)pivalamide] | 8.20
14 | CC(C)(C)OC(=O)N1CC(C(=O)Nc2cnn3ccc(N4CCC[C@@H]4c4cc(F)ccc4Cl)nc23)C1 [Example 46, (R)-tert-butyl 3-(5-(2-(2-chloro-5-fluorophenyl)pyrrolidin-1-yl)pyrazolo[1,5-a]pyrimidin-3-ylcarbamoyl)azetidine-1-carboxylate] | 7.43
15 | O=C(Nc1cnn2ccc(N3CCC[C@@H]3c3cc(F)ccc3Cl)nc12)C1CNC1 [Example 47, (R)—N-(5-(2-(2-chloro-5-fluorophenyl)pyrrolidin-1-yl)pyrazolo[1,5-a]pyrimidin-3-yl)azetidine-3-carboxamide trifluoroacetate] | 6.72
16 | CC(C)(C)OC(=O)N1CCC(C)(C(=O)Nc2cnn3ccc(N4CCC[C@@H]4c4cc(F)ccc4Cl)nc23)CC1 [Example 48, (R)-tert-butyl 4-(5-(2-(2-chloro-5-fluorophenyl)pyrrolidin-1-yl)pyrazolo[1,5-a]pyrimidin-3-ylcarbamoyl)-4-methylpiperidine-1-carboxylate] | 7.82
17 | CC1(C(=O)Nc2cnn3ccc(N4CCC[C@@H]4c4cc(F)ccc4Cl)nc23)CCNCC1 [Example 49, (R)—N-(5-(2-(2-chloro-5-fluorophenyl)pyrrolidin-1-yl)pyrazolo[1,5-a]pyrimidin-3-yl)-4-methylpiperidine-4-carboxamide hydrochloride] | 7.53
18 | CC(C)(O)C(=O)Nc1cnn2ccc(N3CCC[C@@H]3c3cc(F)ccc3F)nc12 [Example 50, (R)—N-(5-(2-(2,5-difluorophenyl)pyrrolidin-1-yl)pyrazolo[1,5-a]pyrimidin-3-yl)-2-hydroxy-2-methylpropanamide] | 7.91
19 | O=C(Nc1cnn2ccc(N3CCC[C@@H]3c3cc(F)ccc3F)nc12)C1(C(F)(F)F)CC1 [Example 51, (R)—N-(5-(2-(2,5-difluorophenyl)pyrrolidin-1-yl)pyrazolo[1,5-a]pyrimidin-3-yl)-1-(trifluoromethyl)cyclopropanecarboxamide] | 8.28
20 | N#CC1(C(=O)Nc2cnn3ccc(N4CCC[C@@H]4c4cc(F)ccc4F)nc23)CC1 [Example 52, (R)-1-cyano-N-(5-(2-(2,5-difluorophenyl)pyrrolidin-1-yl)pyrazolo[1,5-a]pyrimidin-3-yl)cyclopropanecarboxamide] | 8.38
21 | C[C@]1(C(=O)Nc2cnn3ccc(N4CCC[C@@H]4c4cc(F)ccc4F)nc23)CCCN1 [Example 53, (R)—N-(5-((R)-2-(2,5-difluorophenyl)pyrrolidin-1-yl)pyrazolo[1,5-a]pyrimidin-3-yl)-2-methylpyrrolidine-2-carboxamide] | 7.51
22 | CC(C)(F)C(=O)Nc1cnn2ccc(N3CCC[C@@H]3c3cc(F)ccc3F)nc12 [Example 54, (R)—N-(5-(2-(2,5-difluorophenyl)pyrrolidin-1-yl)pyrazolo[1,5-a]pyrimidin-3-yl)-2-fluoro-2-methylpropanamide] | 7.85
23 | CC(C)Nc1nc(C(=O)Nc2cnn3ccc(N4CCC[C@@H]4c4cc(F)ccc4F)nc23)cs1 [Example 55, (R)—N-(5-(2-(2,5-difluorophenyl)pyrrolidin-1-yl)pyrazolo[1,5-a]pyrimidin-3-yl)-2-(isopropylamino)thiazole-4-carboxamide] | 8.51
24 | CC(C)(C(=O)Nc1cnn2ccc(N3CCC[C@@H]3c3cc(F)ccc3F)nc12)n1cncn1 [Example 56, (R)—N-(5-(2-(2,5-difluorophenyl)pyrrolidin-1-yl)pyrazolo[1,5-a]pyrimidin-3-yl)-2-methyl-2-(1H-1,2,4-triazol-1-yl)propanamide] | 7.84
25 | Cc1cnc(C(=O)Nc2cnn3ccc(N4CCC[C@@H]4c4cc(F)ccc4F)nc23)cn1 [Example 58, (R)—N-(5-(2-(2,5-difluorophenyl)pyrrolidin-1-yl)pyrazolo[1,5-a]pyrimidin-3-yl)-5-methylpyrazine-2-carboxamide] | 8.51
26 | O=C(Nc1cnn2ccc(N3CCC[C@@H]3c3cc(F)ccc3F)nc12)c1ccccn1 [Example 59, (R)—N-(5-(2-(2,5-difluorophenyl)pyrrolidin-1-yl)pyrazolo[1,5-a]pyrimidin-3-yl)picolinamide] | 8.77
27 | Cc1cccc(C(=O)Nc2cnn3ccc(N4CCC[C@@H]4c4cc(F)ccc4F)nc23)n1 [Example 60, (R)—N-(5-(2-(2,5-difluorophenyl)pyrrolidin-1-yl)pyrazolo[1,5-a]pyrimidin-3-yl)-6-methylpicolinamide] | 8.38
28 | O=C(Nc1cnn2ccc(N3CCC[C@@H]3c3cc(F)ccc3F)nc12)c1ccc(Cl)cn1 [Example 61, (R)-5-chloro-N-(5-(2-(2,5-difluorophenyl)pyrrolidin-1-yl)pyrazolo[1,5-a]pyrimidin-3-yl)picolinamide] | 8.40
29 | O=C(Nc1cnn2ccc(N3CCC[C@@H]3c3cc(F)ccc3F)nc12)c1cc(Cl)ccn1 [Example 62, (R)-4-chloro-N-(5-(2-(2,5-difluorophenyl)pyrrolidin-1-yl)pyrazolo[1,5-a]pyrimidin-3-yl)picolinamide] | 8.40
30 | Cc1cccnc1C(=O)Nc1cnn2ccc(N3CCC[C@@H]3c3cc(F)ccc3F)nc12 [Example 63, (R)—N-(5-(2-(2,5-difluorophenyl)pyrrolidin-1-yl)pyrazolo[1,5-a]pyrimidin-3-yl)-3-methylpicolinamide] | 8.77
